# Key:
# [1] = Body weight in the HCC1806 xenograft study; type: in vivo, BALB/c nude mice; settings: group mean, 30 mg/kg P.O. BID; for Body weight D0: day 0; for Body weight D3: day 3; for Body weight D7: day 7; for Body weight D10: day 10; for Body weight D14: day 14; for Body weight D17: day 17; for Body weight D21: day 21
# Procedure: (§1) When the average tumor volume reached 80-120 mm^3, 42 tumor-bearing mice were randomized into 7 groups (6 mice per group) according to tumor volume. The grouping day was defined as Day 0. Treatment was applied immediately after grouping animals on the same day.
# (§2) The body weight of the testing animals were measured twice a week after grouping. Tumor volumes by the length and width of the tumor were measured by electric calipers and the tumor volume (V) was calculated as follows: V=(length×width^2)/2. The individual relative tumor volume (RTV) was calculated as follows: RTV=Vt/V0, where Vt was the volume on each day, and V0 was the volume at the beginning of the treatment.
# (§3) Results were expressed as mean±S.E.M. Comparisons between two groups were made by corresponding test, p<0.05 were considered to be significant.
# HCC1806 s.c. xenografts = assay: HCC1806 s.c. breast cancer xenograft efficacy (tumor volume, relative tumor volume, tumor weight, TGI); type: in vivo, BALB/c nude mice; settings: 30 mg/kg P.O. BID; for Tumor Growth Inhibition D3 / Tumor Growth Inhibition D7 / Tumor Growth Inhibition D10 / Tumor Growth Inhibition D14 / Tumor Growth Inhibition D17 / Tumor Growth Inhibition D21: vs control vehicle; for Tumor Growth Inhibition D3 / Tumor volume D3: day 3; for Tumor Growth Inhibition D7 / Tumor volume D7: day 7; for Tumor Growth Inhibition D10 / Tumor volume D10: day 10; for Tumor Growth Inhibition D14 / Tumor volume D14: day 14; for Tumor Growth Inhibition D17 / Tumor volume D17: day 17; for Tumor Growth Inhibition D21 / Tumor volume D21: day 21; for Tumor volume D0 / Tumor volume D3 / Tumor volume D7 / Tumor volume D10 / Tumor volume D14 / Tumor volume D17 / Tumor volume D21 / Tumor weight: group mean; for Tumor volume D0: day 0; for Tumor weight: end of the study (Day 21)
# Procedure: The in vivo potency of anti-tumor activities of Comp. 4, Comp. 37, Comp. 5, Comp. 28, Comp. 163, and Comp. 164 have been evaluated on the growth of HCC1806 s.c. xenografts in BALB/c nude mice.
# The testing compounds Comp. 4, Comp. 37, Comp. 5, Comp. 28, Comp. 163, and Comp. 164 were prepared according the synthetic routes set forth in the above Examples. The testing formulations for compounds Comp. 4, Comp. 37, Comp. 5, Comp. 28, Comp. 163, and Comp. 164 were prepared as liquid formulation in a liquid vehicle containing 0.1% Tween-80 (purchased form Sinopharm Chemical Reagent Co., Ltd, Lot No. 20190322), 0.5% methyl cellulose (purchased from SIGMA, Lot No. SLBR8963V) in water.
# A total of 42+8 female BALB/c nude mice were ordered from Shanghai LC Laboratory Animal Co. Ltd. The animals were specific pathogen free and approximately 4-5 weeks old upon arrival at PharmaLegacy Laboratories.
# HCC1806 cell cultures were maintained at 37° C. under 5% CO2 in RPMI-1640 medium supplemented with 10% FBS and were subsequently cultured within 10 passages before inoculated into the mice.
# as §1, §2
# Tumors were collected at the end of the study (Day 21), the mice were sacrificed. Tumor was collected, weighed, photographed.
# as §3
# [2] = In vitro liver microsome stability, mouse; settings: microsomes, pH 7.4
# Procedure: (§4) Human liver microsomes (cat. No. 452161), mouse liver microsomes (cat. No. 452701), were purchased from Corning.
# (§5) Samples were analyzed using LC-MS/MS using a SCIEX API 4000 mass spectrometer coupled with Agilent HPLC analytical system. After separation on a ZORBAX XDB-C18 column (5 μm, 50×2.1 mm, column No. 50-282) using an acetonitrile-water gradient system, peaks were analyzed by mass spectroscopy (MS) using ESI ionization in Q1 and Q3 scan mode.
# (§6) The LC and MS are all controlled by Analyst software.
# (§7) The liver microsomes were incubated with 1.0 μM of the testing compound at 37° C. The incubation mixture contained 100 mM PBS buffer (pH=7.4), 3 mM MgCl2 and 1 mM NADPH. The concentration of liver microsome in the incubation mixture was 0.5 mg/mL for testing compound, and 0.2 mg/mL for MDZ and the total volume is 0.2 mL. […] Aliquots were withdrawn at time points of 0 min, 5 min and 20 min for MDZ. The reactions were terminated by transferring the aliquots to a methanol solution containing the internal standard […] for analytical quantification. The quenched samples were analyzed by LC-MS/MS. The incubations were carried out in duplicates. The metabolic stability of the testing compounds by the liver microsomes of human and mice is expressed as elimination half-life (t1/2). The results are shown as the means of duplicate determinations±SD.
# [3] = In vitro liver microsome stability, human; settings: microsomes
# Procedure: as §4, §5, §6, §7
# [4] = test system: human breast squamous HCC1806 cell line; assay: CyQUANT Direct cell proliferation assay, HCC1806; type: cell-based; settings: HCC1806, 168 h, 7 days
# Source text: The human ovarian carcinoma OVCAR3 cell line (ATCC HTB-161™) or human breast squamous HCC1806 cell line (ATCC CRL 2335) were obtained from American Type Culture Collection (ATCC), and maintained in culture media according to the supplier's specification.
# The CyQUANT® Direct Cell Proliferation Assay Kit (Invitrogen™, catalog No. G35012) was utilized to test the inhibitory activities of the CDK2 inhibitors described in this disclosure against OVCAR3 or HCC1806 tumor cells.
# CyQUANT® Direct Cell Proliferation Assay: The spent medium from the purchased tumor cell culture plate was removed and the tumor cells were washed with PBS buffer twice. Trypsin (VWR catalog No. 0458-25G) was added to digest the tumor cells until tumor cells appeared round shaped and to dissociate adherent cells from the plate wall in which they are being cultured. Then RPMI-1640 media (HCC1806, Gibco™ catalog No, A10491-01) with 10% fetal bovine serum (FBS) (Hyclone™ catalog No. SV30160.03), or RPMI-1640 media (OVCAR-3, Gibco™ catalog No. 10370-021) with 20% FBS and 0.01 mg/mL insulin was added to stop the trypsin digestion reaction. The tumor cells were lightly agitated with a liquid transfer pipette to cause tumor cells suspended in the culture media. The cells were counted. The complete medium was used to prepare tumor cell suspension.
# OVCAR3 or HCC1806 cells were seeded at 40 μL/well in 384-well plates in growth media containing FBS and cultured 24 hours in the incubator at 37° C., 5% CO2. […] Compound solutions were added by Agilent Bravo liquid handler. […] The control wells contained the growth medium having 0.1% DMSO. Cells were incubated at 37° C., 5% CO2 for 7 days.
# CYQUANT Direct Cell Proliferation Assay (Molecular Probes, Eugene, Oreg.) was then performed following manufacturer's instructions to prepare the detection reagents. 50 μL of detection reagent was aliquot and added to each well and the cells were incubated at 37° C. for 1 hr.
# The cell culture plates were placed on TECAN M1000 microplate reader to detect the fluorescence intensity at 508 nm excitation and 527 nm emission wavelengths. Graphpad Prism 6.0 software was used for data processing, preparing cell growth curve, calculating percentage inhibition on cell growth. IC50 values were calculated by concentration-response curve fitting utilizing a four-parameter analytical method using GraphPad Prism software.
compound,measurement,setting,value
"[2H]C([2H])([2H])c1cc2cnc(NC3([2H])C([2H])([2H])CN(S(C)(=O)=O)CC3([2H])[2H])nc2n([C@@H]2CCC[C@@]2(C)O)c1=O [Comp. 164, (−)-8-((1R,2R)-2-hydroxy-2-methylcyclopentyl)-6-(methyl-d3)-2-((1-(methylsulfonyl)piperidin-4-yl-3,3,4,5,5-d5)amino)pyrido[2,3-d]pyrimidin-7(8H)-one]",Body weight D0,[1],18.47 g
same,Body weight D3,[1],18.47 g
same,Body weight D7,[1],18.70 g
same,Body weight D10,[1],18.37 g
same,Body weight D14,[1],17.86 g
same,Body weight D17,[1],18.20 g
same,Body weight D21,[1],17.29 g
same,"tumor weight at the end of the study, in words",HCC1806 s.c. xenografts,lighter tumor but no statistic significance
same,Tumor Growth Inhibition D3,HCC1806 s.c. xenografts,29.37%
same,Tumor Growth Inhibition D7,HCC1806 s.c. xenografts,15.49%
same,Tumor Growth Inhibition D10,HCC1806 s.c. xenografts,21.94%
same,Tumor Growth Inhibition D14,HCC1806 s.c. xenografts,18.56%
same,Tumor Growth Inhibition D17,HCC1806 s.c. xenografts,29.97%
same,Tumor Growth Inhibition D21,HCC1806 s.c. xenografts,31.27%
same,Tumor volume D0,HCC1806 s.c. xenografts,112.74 mm^3
same,Tumor volume D3,HCC1806 s.c. xenografts,243.14 mm^3
same,Tumor volume D7,HCC1806 s.c. xenografts,545.66 mm^3
same,Tumor volume D10,HCC1806 s.c. xenografts,817.53 mm^3
same,Tumor volume D14,HCC1806 s.c. xenografts,1209.55 mm^3
same,Tumor volume D17,HCC1806 s.c. xenografts,1380.25 mm^3
same,Tumor volume D21,HCC1806 s.c. xenografts,1610.30 mm^3
same,Tumor weight,HCC1806 s.c. xenografts,2.51 g
"Cc1ncc2n1-c1ccc(Cl)cc1C(c1ccccc1F)=NC2 [Midazolam, reference compound]",half-life at 1 μM,[2],4.59 min
same,half-life at 1 μM,[3]; pH 7.4,16.3 min
"[2H]C(F)(F)c1cc2cnc(NC3CCN(S(=O)(=O)C([2H])([2H])[2H])CC3)nc2n([C@@H]2CCC[C@@]2(C)O)c1=O [Comp. 92, (−)-6-(difluoromethyl-d)-8-((1R,2R)-2-hydroxy-2-methylcyclopentyl)-2-((1-((methyl-d3)sulfonyl)piperidin-4-yl)amino)pyrido[2,3-d]pyrimidin-7(8H)-one]",IC50,[4],67.7 nM
"C[C@@]1(O)CCC[C@H]1n1c(=O)c(C(F)F)cc2cnc(NC3CCN(S(C)(=O)=O)CC3)nc21 (racemic) [Comp. 2, (±)-8-(2-hydroxy-2-methylcyclopentyl)-6-difluoromethyl-2-((1-(methylsulfonyl)piperidin-4-yl)amino)pyrido[2,3-d]pyrimidin-7(8H)-one, reference compound]",IC50,[4],59 nM
"[2H]C1([2H])CN(S(C)(=O)=O)CC([2H])([2H])C1Nc1ncc2cc(C)c(=O)n([C@@H]3CCC[C@@]3(C)O)c2n1 [Comp. 67, (−)-8-((1R,2R)-2-hydroxy-2-methylcyclopentyl)-6-methyl-2-((1-(methylsulfonyl)piperidin-4-yl-3,3,5,5-d4)amino)pyrido[2,3-d]pyrimidin-7(8H)-one]",IC50,[4],65.9 nM
"[2H]C([2H])([2H])S(=O)(=O)N1CCC(Nc2ncc3cc(C(F)F)c(=O)n([C@@H]4CCC[C@@]4(C)O)c3n2)CC1 [Comp. 85, (−)-6-(difluoromethyl)-8-((1R,2R)-2-hydroxy-2-methylcyclopentyl)-2-((1-((methyl-d3)sulfonyl)piperidin-4-yl)amino)pyrido[2,3-d]pyrimidin-7(8H)-one]",IC50,[4],84.5 nM
"[2H]C([2H])([2H])S(=O)(=O)N1CCC(Nc2ncc3cc(C)c(=O)n([C@@H]4CCC[C@@]4(C)O)c3n2)CC1 [Comp. 74, (−)-8-((1R,2R)-2-hydroxy-2-methylcyclopentyl)-6-methyl-2-((1-((methyl-d3)sulfonyl)piperidin-4-yl)amino)pyrido[2,3-d]pyrimidin-7(8H)-one]",IC50,[4],83.7 nM
"[2H]C([2H])([2H])c1cc2cnc(NC3([2H])C([2H])([2H])CN(S(=O)(=O)C([2H])([2H])[2H])CC3([2H])[2H])nc2n([C@@H]2CCC[C@@]2(C)O)c1=O [Comp. 163, (−)-8-((1R,2R)-2-hydroxy-2-methylcyclopentyl)-6-(methyl-d3)-2-((1-((methyl-d3)sulfonyl)piperidin-4-yl-3,3,4,5,5-d5)amino)pyrido[2,3-d]pyrimidin-7(8H)-one]",Body weight D0,[1],17.54 g
same,Body weight D3,[1],17.61 g
same,Body weight D7,[1],17.72 g
same,Body weight D10,[1],17.67 g
same,Body weight D14,[1],18.32 g
same,Body weight D17,[1],18.66 g
same,Body weight D21,[1],17.95 g
same,tumor volume compared with G1 vehicle on each day,HCC1806 s.c. xenografts,"significant smaller tumor volume on day 7, 17 and 21"
same,"tumor weight at the end of the study, in words",HCC1806 s.c. xenografts,lighter tumor but no statistic significance
same,Tumor Growth Inhibition D3,HCC1806 s.c. xenografts,38.81%
same,Tumor Growth Inhibition D7,HCC1806 s.c. xenografts,34.97%
same,Tumor Growth Inhibition D10,HCC1806 s.c. xenografts,34.46%
same,Tumor Growth Inhibition D14,HCC1806 s.c. xenografts,30.36%
same,Tumor Growth Inhibition D17,HCC1806 s.c. xenografts,36.67%
same,Tumor Growth Inhibition D21,HCC1806 s.c. xenografts,40.94%
same,Tumor volume D0,HCC1806 s.c. xenografts,110.66 mm^3
same,Tumor volume D3,HCC1806 s.c. xenografts,223.62 mm^3
same,Tumor volume D7,HCC1806 s.c. xenografts,443.83 mm^3
same,Tumor volume D10,HCC1806 s.c. xenografts,702.37 mm^3
same,Tumor volume D14,HCC1806 s.c. xenografts,1048.55 mm^3
same,Tumor volume D17,HCC1806 s.c. xenografts,1257.00 mm^3
same,Tumor volume D21,HCC1806 s.c. xenografts,1397.61 mm^3
same,Tumor weight,HCC1806 s.c. xenografts,2.20 g
"[2H]C([2H])([2H])S(=O)(=O)N1CCC(Nc2ncc3ccc(=O)n([C@@H]4CCC[C@@]4(C)O)c3n2)CC1 [Comp. 55, (−)-8-((1R,2R)-2-hydroxy-2-methylcyclopentyl)-2-((1-((methyl-d3)sulfonyl)piperidin-4-yl)amino)pyrido[2,3-d]pyrimidin-7(8H)-one]",half-life at 1 μM,"[3]; human, pH 7.4, t1/2 human",346 min
"[2H]C1(Nc2ncc3cc(C(F)F)c(=O)n([C@@H]4CCC[C@@]4(C)O)c3n2)CCN(S(C)(=O)=O)CC1 [Comp. 99, (−)-6-(difluoromethyl)-8-((1R,2R)-2-hydroxy-2-methylcyclopentyl)-2-((1-(methylsulfonyl)piperidin-4-yl-4-d)amino)pyrido[2,3-d]pyrimidin-7(8H)-one]",IC50,[4],65.5 nM

# Source: patent US20230242526A1 (Zentaur Therapeutics International Limited, priority 2020, published 2023)
